From ChEMBL document CHEMBL1148677, “Identification of small-molecule inhibitors of the Abeta-ABAD interaction” (Bioorg Med Chem Lett, 2006)
Calls of active or inactive are those of the source. The rule behind the calls is not given here.

Columns and labels:
[1] = Inhibition of beta amyloid-ABAD interaction by ELISA; parameters: species or system Homo sapiens
Homo sapiens = species on record: Homo sapiens; assay: Inhibition of beta amyloid-ABAD interaction by ELISA at 1 mM
[2] = Partition coefficient, log P of the compound; assay type: physicochemical; conditions: octanol/water

SMILES	IC50 [1] [µM]	inhibition (Homo sapiens) [%]	Activity (Homo sapiens)	logP [2]
O=C(Nc1nc2ccc(Cl)cc2s1)c1ccccc1	–	< 50	–	–
CCOc1ccc2nc(NC(=O)c3cccc(OC)c3OC)sc2c1	–	< 50	–	–
COC(=O)c1ccc(NC(=O)Nc2nc3ccc(F)cc3s2)c(I)c1	286	–	Active	–
O=C(Nc1ccc(O)c(C(=O)O)c1)Nc1nc2ccc(F)cc2s1	261	–	Active	–
O=C(Nc1nc2ccc(Cl)cc2s1)c1cccc(O)c1O	–	< 50	–	–
O=C(Nc1ccc(C(=O)O)c(O)c1)Nc1nc2ccc(Cl)cc2s1	267	–	Active	–
COc1cccc(C(=O)Nc2nc3ccc(Cl)cc3s2)c1OC	–	< 50	–	–
O=C(Nc1nc2ccc(F)cc2s1)c1ccccc1	–	< 50	–	–
O=C(Nc1cccnc1)Nc1nc2ccc(Cl)cc2s1	247	–	Active	–
COc1ccc2nc(NC(=O)Nc3cccnc3)sc2c1	257	–	Active	–
COc1ccc2nc(NC(=O)NOc3ccccc3)sc2c1	316	–	Active	–
CCOc1ccc2nc(NC(=O)c3ccccc3)sc2c1	–	< 50	–	–
O=C(Nc1cc(O)c2cc(S(=O)(=O)O)ccc2c1)Nc1nc2ccc(Cl)cc2s1	267	–	Active	–
COc1ccc2nc(NC(=O)Nc3ccc(N4CCOCC4)cc3)sc2c1	250	–	Active	–
COc1ccc2nc(NC(=O)c3cccc(OC)c3OC)sc2c1	–	< 50	–	–
COc1cccc(C(=O)Nc2nc3ccc(F)cc3s2)c1OC	–	< 50	–	–
O=C(Nc1nc2ccc(O)cc2s1)c1cccc(O)c1O	–	< 50	–	–
COc1ccc2nc(NC(=O)c3ccccc3)sc2c1	–	< 50	–	–
O=C(Nc1cccnc1)Nc1nc2ccc(F)cc2s1	282	–	Active	–
O=C(Nc1nc2ccc(F)cc2s1)c1cccc(O)c1O	–	< 50	–	–

The remaining lines, values ahead:

IC50 [1] [µM]	inhibition (Homo sapiens) [%]	Activity (Homo sapiens)	logP [2]	SMILES
200	–	–	–	COc1ccc2nc(NC(=O)Nc3ccccc3)sc2c1 [FRENTIZOLE]
190	–	–	–	COc1ccc2nc(NC(=S)Nc3ccccc3)sc2c1
163	–	–	–	COc1ccc2nc(NC(=O)N3CCN(c4ccc5c(c4)OCO5)CC3)sc2c1
29	–	Active	–	O=C(Nc1cc(O)c2cc(S(=O)(=O)O)ccc2c1)Nc1nc2ccc(OC(F)(F)F)cc2s1
20.6	–	Active	–	CCOc1ccc2nc(NC(=O)Nc3ccc(O)c(C(=O)OC)c3)sc2c1
47.6	–	Active	–	O=C(Nc1ccc(O)cc1)Nc1nc2ccc(OC(F)(F)F)cc2s1
26.6	–	Active	–	COc1ccc2nc(NC(=O)NCc3ccc4c(c3)OCO4)sc2c1
22.7	–	Active	–	COC(=O)c1cc(C(=O)O)ccc1NC(=O)Nc1nc2ccc(Cl)cc2s1
6.46	–	Active	1.34	COC(=O)c1cc(NC(=O)Nc2nc3ccc(Cl)cc3s2)ccc1O
6.56	–	Active	1.15	COC(=O)c1cc(NC(=O)Nc2nc3ccc(F)cc3s2)ccc1O
244	–	Active	–	COC(=O)c1cc(NC(=O)Nc2nc3ccc(OC(F)(F)F)cc3s2)ccc1O
244	–	Active	–	O=C(Nc1cccnc1)Nc1nc2ccc(OC(F)(F)F)cc2s1
26.3	–	Active	–	COC(=O)c1cc(NC(=O)Nc2nc3ccc(OC)cc3s2)ccc1O
53.8	–	Active	–	O=C(Nc1nc2ccc(OC(F)(F)F)cc2s1)Nc1ccc(O)cc1O
29.5	–	Active	–	COc1ccc2nc(NC(=O)Nc3ccc(O)c(C(=O)O)c3)sc2c1
15.6	–	–	–	COC(=O)c1cc(NC(=S)Nc2nc3ccc(OC)cc3s2)ccc1O
23	–	Active	–	O=C(Nc1nc2ccc(Cl)cc2s1)Nc1ccc(O)cc1O
230	–	–	–	Cc1ccc2c(c1)sc(-c1ccc(N(C)C)cc1)[n+]2C
185	–	Active	–	O=C(Nc1ccc(O)c(C(=O)O)c1)Nc1nc2ccc(OC(F)(F)F)cc2s1
207	–	Active	–	O=C(Nc1nc2ccc(F)cc2s1)Nc1ccccc1O
